Entries after “also recorded” stand apart in the source; their conditions may differ.
Columns and labels:
[1] = test system: SH-SY5Y cells; assay: Cytotoxicity on SH-SY5Y cells (MTT assay); type: cell-based, human
Procedure: To evaluate the neuronal cell cytotoxicity of compound 16b, we examined its cytotoxic profile on human neuroblastoma SH-SY5Y cells after incubation for 24 h by the MTT (3-(4,5-dimethylthiazol-2-yl)-2,5-diphenyltetrazolium bromide) assay.
Figure 5. Cell viability of SH-SY5Y cells exposed to compound 16b at different concentrations (range from 3.125 − 50 μM) for 24 h. Vehicle treater cells were used as control. The results were expressed as the percentage of viable cells observed after treatment with compound 16b respect to vehicle-treated cells (100%) and shown as the mean ± SD from at least three separate experiments.
SH-SY5Y cells were cultured in DMEM/F12 (Dulbecco’s modified Eagle medium and Ham’s F-12, 1:1) with 10% FBS (fetal bovine serum), 1% penicillin and 1% streptomycin under 5% CO2 atmosphere at 37 °C. SH-SY5Y cells (1 × 10^5) were seeded in 96-well plates and incubated for 24 h. Different concentrations of compound 16b were added into each well and incubated for another 24 h. The survival of cells was determined by MTT assay and the absorbance of each well were measured using a SpectraMax M5 multimode plate reader at 570 nm. Results were expressed as percentage of control and statistical analysis was performed using GraphPad Prism 5.0 (GraphPad Software Inc., San Diego, CA, USA).

[2] = test system: β-catenin; assay: Western blot of β-catenin abundance in SH-SY5Y cells; type: cell-based, human; details: 2.5 h, control 0.41
Description: Figure 6. (A) The effect of 16b on phosphorylation of GSK-3β at Ser9; (B) the effect of 16b on β-catenin abundance. Protein expressions were detected by immunoblot analysis with a specific antibody. Values are reported as the mean ± SD of three independent experiments. *p < 0.05, **p < 0.01, ***p < 0.001 vs control.
GSK-3β is implicated in the Wnt/β-catenin signalling pathway, which plays an important role in neuronal development. GSK-3β, together with adenomatous polyposis coli (APC), Axin, and casein kinase 1 (CK1), form a ploy-protein complex that regulates the hyperphosphorylation of β-catenin. Phospho-β-catenin is recognised by ubiquitin and degraded by proteasomes. Pharmacological inhibition of GSK-3β leads to the activation and stabilisation of β-catenin, subsequently resulting in the accumulation of β-catenin in cytoplasm. The activation of Wnt/β-catenin signalling pathway can promote synaptic growth, alleviate spatial memory impairment and neurodegeneration in Alzheimer’s models. Moreover, β-catenin also plays a pivotal role in cell adhesion complexes. The combination of β-catenin and N-cadherin elevates cell-to-cell interactions which is prerequisite for neuronal differentiation[61]^,[62]. Therefore, we further evaluated the effect of 16b on β-catenin. In agreement with its GSK-3β inhibitory activity on SH-SY5Y cells, 16b increased β-catenin abundance in a dose-dependent manner. […]
SH-SY5Y cells (1 × 10^6) were seeded in 12-well plates (Corning, Los Altos, MA, USA) and incubated with compound 16b or LiCl at the indicated concentrations for 2.5 h at 37 °C in 5% CO2. […] The protein quantification was determined using a BCA protein assay kit (Jiangsu KeyGEN BioTECH Co., Ltd., Nanjing, China). […] The blots were washed by TBST for 20 min and detected with ECL chemiluminescent reagent (Jiangsu KeyGEN BioTECH Co., Ltd., Nanjing, China) for 3 min. Pixel intensity was quantitated using gel imaging system (SYNGENE G:BOX/iChemi XR5, ISS, San Diego, CA, US) and Gel-Pro32 software (Media Cybernetics, Bethesda, MD, USA). […]

## CC(C)C(=O)Nc1n[nH]c2cc(-c3cccnc3)sc12 [Compound 16b, N-(5-(pyridin-3-yl)-1H-thieno[3,2-c]pyrazol-3-yl)isobutyramide]
[1]; 50 μM versus GSK-3β IC50
  non-cytotoxic concentration as fold of the IC50 value of GSK-3β inhibitory activity: > 16000 fold
[1]; concentration up to 50 μM (3.125-50 μM), 24 h, MTT
  cytotoxicity on SH-SY5Y cells: no toxicity; also recorded: no significant cytotoxicity
[2]; 5 μM
  β-catenin/GADPH ratio: 0.54
[2]; 10 μM
  β-catenin/GADPH ratio: 0.64
[2]; 20 μM
  β-catenin/GADPH ratio: 0.76

— publication PMC9225722, “Synthesis and biological evaluation of thieno[3,2-c]pyrazol-3-amine derivatives as potent glycogen synthase kinase 3β inhibitors for Alzheimer’s disease” (Journal of Enzyme Inhibition and Medicinal Chemistry, 2022)
